The source made the active and inactive calls.
Experiments:
[1] = target: T1, Kappa-type opioid receptor (Homo sapiens, UniProt P41145); assay type: functional
Mu-type opioid receptor = Mu-type opioid receptor (Homo sapiens, UniProt P35372); experiment: HTS Image-Based Screen for Agonists of the MOR Receptor. [Related pubchem assays (depositor defined):AID1777, AID1785, AID1786, AID2133]; assay type: functional;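 further: imaging of beta-arrestin GFP recruitment into spots after receptor activation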
Beta-galactosidase = Beta-galactosidase (Escherichia coli, UniProt Q8VNN2); assay type: functional
[2] = target: T2, Delta-type opioid receptor (Homo sapiens, UniProt P41143); experiment: HTS Image-Based Screen for Agonists of the DOR Receptor. [Related pubchem assays (depositor defined):AID1777, AID1786, AID2133]; assay type: functional
[3] = target: T2, Delta-type opioid receptor; experiment: HTS Image-Based Screen for Antagonists of the DOR Receptor. [Related pubchem assays (depositor defined):AID1777, AID1785, AID1786, AID2133]; assay type: functional
[4] = target: T1, Kappa-type opioid receptor; assay type: functional; remark: listed apart in the source
[5] = toxicity toward cultured mammalian cells – cell-based, plate reader, cherry-pick samples, cytotoxicity control, dose response (AID 504397); assay type: functional
[6] = viability of HCT116 lacking mutant beta-catenin – cell-based, human colon tumor, dose response (AID 1045); assay type: functional;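 further: HCT116 colon tumor cells with beta catenin knocked out; cells exposed to compound for 60 hours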
Protein RecA = target: T3, Protein RecA (Mycobacterium tuberculosis, UniProt P9WHJ3); experiment: Fluorescence Cell-Free Homogeneous Dose Retest to Identify Inhibitors of RecA-Intein Splicing Activity. [Related pubchem assays (depositor defined):AID2097, AID2223, AID489010, AID492950]; assay type: functional
T3 sequence (P9WHJ3 whole entry): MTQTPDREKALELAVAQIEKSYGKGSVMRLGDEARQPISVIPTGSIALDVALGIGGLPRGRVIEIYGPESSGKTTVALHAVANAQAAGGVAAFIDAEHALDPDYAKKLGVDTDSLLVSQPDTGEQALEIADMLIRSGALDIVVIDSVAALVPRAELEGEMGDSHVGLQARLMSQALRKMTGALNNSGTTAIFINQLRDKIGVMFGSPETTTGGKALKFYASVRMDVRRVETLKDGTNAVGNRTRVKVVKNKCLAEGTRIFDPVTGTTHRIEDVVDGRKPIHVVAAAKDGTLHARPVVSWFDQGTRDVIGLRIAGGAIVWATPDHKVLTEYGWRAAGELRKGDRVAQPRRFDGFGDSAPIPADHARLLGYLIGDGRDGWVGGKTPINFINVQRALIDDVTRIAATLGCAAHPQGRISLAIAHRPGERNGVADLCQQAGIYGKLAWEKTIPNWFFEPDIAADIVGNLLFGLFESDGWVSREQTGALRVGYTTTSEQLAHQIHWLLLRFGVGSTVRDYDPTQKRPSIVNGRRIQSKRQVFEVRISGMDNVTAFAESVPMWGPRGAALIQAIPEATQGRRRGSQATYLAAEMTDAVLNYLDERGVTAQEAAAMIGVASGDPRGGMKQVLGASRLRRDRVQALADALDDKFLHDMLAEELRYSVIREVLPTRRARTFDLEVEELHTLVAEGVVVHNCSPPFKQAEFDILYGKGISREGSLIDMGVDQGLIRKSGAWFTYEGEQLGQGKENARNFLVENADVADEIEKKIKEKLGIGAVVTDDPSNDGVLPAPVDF

[7] = target: T4, G-protein coupled receptor 35 (Homo sapiens, UniProt Q9HC97); experiment: inhibition of zaprinast-stimulated GPR35 beta-arrestin translocation – imaging, U2OS, beta-arrestin-GFP, zaprinast agonist, primary screen (AID 2058); assay type: functional;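 further: antagonist potency meaning inhibition of agonist-induced arrestin redistribution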
CAAX prenyl protease 2 [8] = target: T5, CAAX prenyl protease 2 (Homo sapiens, UniProt Q9Y256); experiment: inhibition of Ras-converting CAAX protease Rce1 – biochemical, yeast membranes, quenched-peptide fluorescence, cherry-pick, dose response (AID 588849)
T5 sequence (Q9Y256 whole entry): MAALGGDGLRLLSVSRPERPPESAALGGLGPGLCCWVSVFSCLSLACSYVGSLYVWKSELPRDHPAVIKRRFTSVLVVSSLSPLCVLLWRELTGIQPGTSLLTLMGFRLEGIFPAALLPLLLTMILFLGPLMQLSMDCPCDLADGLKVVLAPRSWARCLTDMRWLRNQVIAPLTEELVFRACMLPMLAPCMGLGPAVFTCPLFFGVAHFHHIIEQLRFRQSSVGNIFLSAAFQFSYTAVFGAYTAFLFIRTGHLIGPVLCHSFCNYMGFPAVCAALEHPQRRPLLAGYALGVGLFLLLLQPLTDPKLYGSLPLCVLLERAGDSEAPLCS

[9] = target: T6, G-protein coupled receptor 55 (Homo sapiens, UniProt Q9Y2T6); experiment: inhibition of LPI-stimulated GPR55 beta-arrestin translocation – imaging, U2OS, beta-arrestin-GFP, LPI agonist, primary screen (AID 2013); assay type: functional;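 further: antagonist potency measured as reduced agonist-driven arrestin aggregation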
[10] = viability of PTEN-deleted HCT116 cells – cell-based, HCT116 PTEN knockout, dose response (AID 1047); assay type: functional;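 further: HCT116 colon tumor cells with PTEN knocked out; cells exposed to compound for 60 hours before readout; potency for loss of cell viability measured by luminescence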
[11] = target: T7, Replicative DNA helicase DnaB (Mycobacterium tuberculosis, UniProt P9WMR3); experiment: DnaB intein splicing inhibitors, dose response, biochemical, cell-free fluorescence (AID 449749); assay type: functional
T7 sequence (P9WMR3 whole entry): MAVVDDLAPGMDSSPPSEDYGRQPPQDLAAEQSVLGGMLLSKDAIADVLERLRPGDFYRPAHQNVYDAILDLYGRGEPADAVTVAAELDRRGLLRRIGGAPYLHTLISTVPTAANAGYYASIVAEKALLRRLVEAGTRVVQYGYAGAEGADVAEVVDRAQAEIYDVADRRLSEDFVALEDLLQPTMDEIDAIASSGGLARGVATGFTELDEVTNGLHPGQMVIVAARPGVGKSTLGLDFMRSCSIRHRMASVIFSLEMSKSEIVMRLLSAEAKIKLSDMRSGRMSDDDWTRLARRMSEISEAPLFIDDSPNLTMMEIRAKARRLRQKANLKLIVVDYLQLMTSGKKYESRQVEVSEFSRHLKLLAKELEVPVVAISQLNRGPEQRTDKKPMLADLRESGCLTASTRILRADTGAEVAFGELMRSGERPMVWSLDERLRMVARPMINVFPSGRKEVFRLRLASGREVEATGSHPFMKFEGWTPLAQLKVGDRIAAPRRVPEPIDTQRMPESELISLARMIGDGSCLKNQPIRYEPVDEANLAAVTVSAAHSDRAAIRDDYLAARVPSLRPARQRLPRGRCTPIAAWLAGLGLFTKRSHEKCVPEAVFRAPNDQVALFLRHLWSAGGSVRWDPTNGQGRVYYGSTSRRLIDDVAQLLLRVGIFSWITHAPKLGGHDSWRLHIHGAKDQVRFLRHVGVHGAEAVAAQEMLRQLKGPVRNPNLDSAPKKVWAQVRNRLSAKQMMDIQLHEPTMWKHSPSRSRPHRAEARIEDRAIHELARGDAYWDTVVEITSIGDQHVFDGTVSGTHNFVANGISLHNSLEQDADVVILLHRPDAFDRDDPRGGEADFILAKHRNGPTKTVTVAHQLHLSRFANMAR

Integrin alpha-4 = Integrin alpha-4 (Homo sapiens, UniProt P13612); experiment: allosteric modulators of alpha4 integrin VLA-4 – cell-based, LIBS antibody binding, flow cytometry, SAR follow-up (AID 488791); assay type: functional
CAAX prenyl protease 2 [12] = target: T8, CAAX prenyl protease 2 (Saccharomyces cerevisiae S288c, UniProt Q03530); assay type: biochemical
T8 sequence (Q03530 whole entry): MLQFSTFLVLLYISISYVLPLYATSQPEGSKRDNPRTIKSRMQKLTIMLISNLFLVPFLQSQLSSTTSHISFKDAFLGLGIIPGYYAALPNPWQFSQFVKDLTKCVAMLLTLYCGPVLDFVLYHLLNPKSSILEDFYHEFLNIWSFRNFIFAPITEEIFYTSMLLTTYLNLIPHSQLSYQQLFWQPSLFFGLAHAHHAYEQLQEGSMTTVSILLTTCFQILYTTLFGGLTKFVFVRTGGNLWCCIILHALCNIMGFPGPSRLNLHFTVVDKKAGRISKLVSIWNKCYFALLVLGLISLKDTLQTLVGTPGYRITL

[13] = target: T4, G-protein coupled receptor 35; experiment: SAR analysis of Agonists of the GPR35 Receptor using an Image-Based Assay - Set 2. [Related pubchem assays (depositor defined):AID2013, AID2026]; assay type: functional
Cannabinoid receptor 1 [14] = target: T9, Cannabinoid receptor 1 (Homo sapiens, UniProt P21554); experiment: SAR analysis of antagonists of the Cannabinoid Receptor 1 using an Image-Based Assay - Set 2. [Related pubchem assays (depositor defined):AID2013, AID2026]; assay type: functional
[15] = target: T6, G-protein coupled receptor 55; experiment: blockade of LPI-induced GPR55 arrestin translocation – imaging, U2OS, beta-arrestin-GFP, LPI agonist, set 2, SAR follow-up (AID 2820); assay type: functional
Cannabinoid receptor 2 [16] = target: T10, Cannabinoid receptor 2 (Homo sapiens, UniProt P34972); experiment: SAR analysis of agonists of the Cannabinoid Receptor 2 using an Image-Based Assay. [Related pubchem assays (depositor defined):AID2013, AID2026]; assay type: functional
Cannabinoid receptor 2 [17] = target: T10, Cannabinoid receptor 2; experiment: SAR analysis of antagonists of the Cannabinoid Receptor 2 using an Image-Based Assay. [Related pubchem assays (depositor defined):AID2013, AID2026]; assay type: functional
[18] = NIH3T3 cell viability loss – ATP luminescence, mouse fibroblasts, counter-screen, dose response (AID 2010); assay type: functional, cell-based;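 further: cells exposed to compound for about 90 hours before reading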
Cannabinoid receptor 1 [19] = target: T9, Cannabinoid receptor 1; experiment: SAR analysis of agonists of the Cannabinoid Receptor 1 using an Image-Based Assay - Set 2. [Related pubchem assays (depositor defined):AID2013, AID2026]; assay type: functional
[20] = target: T4, G-protein coupled receptor 35; experiment: SAR analysis of Antagonists of the GPR35 Receptor using an Image-Based Assay - Set 3. [Related pubchem assays (depositor defined):AID2013, AID2026]; assay type: functional
[21] = Trypanosoma cruzi growth suppression in host cells – NIH3T3 host cells, beta-gal luminescence, confirmation (AID 2044); assay type: functional, cell-based;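 further: intracellular parasites grown in NIH/3T3 mouse fibroblasts as host cells; luminescent beta-galactosidase reporter signal from transgenic T. cruzi replicating inside host cells; inhibitors lower the luminescence signal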

T4 sequence (Q9HC97 whole entry): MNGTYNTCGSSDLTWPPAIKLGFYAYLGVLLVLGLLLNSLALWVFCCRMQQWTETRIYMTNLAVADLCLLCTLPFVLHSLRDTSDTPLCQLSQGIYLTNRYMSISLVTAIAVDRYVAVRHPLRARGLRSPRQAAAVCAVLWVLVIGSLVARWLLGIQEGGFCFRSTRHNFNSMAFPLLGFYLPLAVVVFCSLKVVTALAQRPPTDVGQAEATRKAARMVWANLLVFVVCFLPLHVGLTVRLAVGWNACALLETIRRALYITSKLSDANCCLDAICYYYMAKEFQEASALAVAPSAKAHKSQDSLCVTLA
T6 sequence (Q9Y2T6 whole entry): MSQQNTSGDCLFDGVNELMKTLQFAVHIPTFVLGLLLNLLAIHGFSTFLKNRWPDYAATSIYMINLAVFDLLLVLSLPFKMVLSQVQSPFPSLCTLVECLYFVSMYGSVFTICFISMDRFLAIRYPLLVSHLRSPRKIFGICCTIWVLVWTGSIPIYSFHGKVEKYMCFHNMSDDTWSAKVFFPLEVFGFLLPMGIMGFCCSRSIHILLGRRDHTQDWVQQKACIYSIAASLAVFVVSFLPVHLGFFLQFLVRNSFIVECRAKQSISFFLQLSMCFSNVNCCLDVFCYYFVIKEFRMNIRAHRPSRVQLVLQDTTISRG
T10 sequence (P34972 whole entry): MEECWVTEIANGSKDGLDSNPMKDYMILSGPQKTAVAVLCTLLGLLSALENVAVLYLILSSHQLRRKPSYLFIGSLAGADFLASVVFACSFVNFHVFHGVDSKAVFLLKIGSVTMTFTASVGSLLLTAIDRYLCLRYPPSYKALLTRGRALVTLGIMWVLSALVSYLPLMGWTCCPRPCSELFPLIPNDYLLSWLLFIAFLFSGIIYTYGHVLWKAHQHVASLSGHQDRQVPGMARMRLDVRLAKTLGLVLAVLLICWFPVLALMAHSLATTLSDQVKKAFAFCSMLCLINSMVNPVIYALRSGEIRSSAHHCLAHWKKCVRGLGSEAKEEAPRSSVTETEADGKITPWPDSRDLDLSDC
T2 sequence (P41143 whole entry): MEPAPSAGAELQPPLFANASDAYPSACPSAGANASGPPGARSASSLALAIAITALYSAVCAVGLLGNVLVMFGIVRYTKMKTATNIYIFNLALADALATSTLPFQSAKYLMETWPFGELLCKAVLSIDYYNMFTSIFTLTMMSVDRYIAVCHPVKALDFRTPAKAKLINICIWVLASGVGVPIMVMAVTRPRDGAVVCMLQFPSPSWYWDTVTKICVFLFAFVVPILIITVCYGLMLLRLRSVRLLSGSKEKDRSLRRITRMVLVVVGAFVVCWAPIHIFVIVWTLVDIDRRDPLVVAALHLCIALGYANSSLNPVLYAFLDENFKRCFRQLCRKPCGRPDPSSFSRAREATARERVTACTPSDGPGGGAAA
T1 sequence (P41145 whole entry): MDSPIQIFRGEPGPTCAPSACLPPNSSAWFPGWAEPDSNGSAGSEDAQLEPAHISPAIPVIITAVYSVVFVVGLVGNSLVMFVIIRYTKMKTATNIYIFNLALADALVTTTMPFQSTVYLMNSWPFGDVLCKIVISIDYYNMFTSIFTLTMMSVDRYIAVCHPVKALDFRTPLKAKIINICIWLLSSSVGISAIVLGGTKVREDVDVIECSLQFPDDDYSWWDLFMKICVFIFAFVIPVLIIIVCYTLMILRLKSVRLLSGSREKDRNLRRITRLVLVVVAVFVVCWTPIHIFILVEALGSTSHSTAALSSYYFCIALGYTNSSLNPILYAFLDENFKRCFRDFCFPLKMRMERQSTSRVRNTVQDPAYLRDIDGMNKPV
T9 sequence (P21554 whole entry): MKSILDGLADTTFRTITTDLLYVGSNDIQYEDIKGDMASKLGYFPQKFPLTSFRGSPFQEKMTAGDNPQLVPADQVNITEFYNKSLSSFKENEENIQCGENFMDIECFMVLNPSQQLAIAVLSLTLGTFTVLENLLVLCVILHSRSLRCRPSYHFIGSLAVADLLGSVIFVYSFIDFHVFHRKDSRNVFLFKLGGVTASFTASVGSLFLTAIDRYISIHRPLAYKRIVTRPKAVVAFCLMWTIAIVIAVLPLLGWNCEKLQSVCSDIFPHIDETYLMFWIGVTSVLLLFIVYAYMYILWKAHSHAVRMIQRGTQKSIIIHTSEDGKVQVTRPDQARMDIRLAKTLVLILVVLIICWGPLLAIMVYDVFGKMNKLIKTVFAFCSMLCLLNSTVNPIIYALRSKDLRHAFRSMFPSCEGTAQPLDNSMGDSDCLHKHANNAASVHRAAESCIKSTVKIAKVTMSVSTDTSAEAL
Chain of Integrin alpha-4 (P13612 whole entry): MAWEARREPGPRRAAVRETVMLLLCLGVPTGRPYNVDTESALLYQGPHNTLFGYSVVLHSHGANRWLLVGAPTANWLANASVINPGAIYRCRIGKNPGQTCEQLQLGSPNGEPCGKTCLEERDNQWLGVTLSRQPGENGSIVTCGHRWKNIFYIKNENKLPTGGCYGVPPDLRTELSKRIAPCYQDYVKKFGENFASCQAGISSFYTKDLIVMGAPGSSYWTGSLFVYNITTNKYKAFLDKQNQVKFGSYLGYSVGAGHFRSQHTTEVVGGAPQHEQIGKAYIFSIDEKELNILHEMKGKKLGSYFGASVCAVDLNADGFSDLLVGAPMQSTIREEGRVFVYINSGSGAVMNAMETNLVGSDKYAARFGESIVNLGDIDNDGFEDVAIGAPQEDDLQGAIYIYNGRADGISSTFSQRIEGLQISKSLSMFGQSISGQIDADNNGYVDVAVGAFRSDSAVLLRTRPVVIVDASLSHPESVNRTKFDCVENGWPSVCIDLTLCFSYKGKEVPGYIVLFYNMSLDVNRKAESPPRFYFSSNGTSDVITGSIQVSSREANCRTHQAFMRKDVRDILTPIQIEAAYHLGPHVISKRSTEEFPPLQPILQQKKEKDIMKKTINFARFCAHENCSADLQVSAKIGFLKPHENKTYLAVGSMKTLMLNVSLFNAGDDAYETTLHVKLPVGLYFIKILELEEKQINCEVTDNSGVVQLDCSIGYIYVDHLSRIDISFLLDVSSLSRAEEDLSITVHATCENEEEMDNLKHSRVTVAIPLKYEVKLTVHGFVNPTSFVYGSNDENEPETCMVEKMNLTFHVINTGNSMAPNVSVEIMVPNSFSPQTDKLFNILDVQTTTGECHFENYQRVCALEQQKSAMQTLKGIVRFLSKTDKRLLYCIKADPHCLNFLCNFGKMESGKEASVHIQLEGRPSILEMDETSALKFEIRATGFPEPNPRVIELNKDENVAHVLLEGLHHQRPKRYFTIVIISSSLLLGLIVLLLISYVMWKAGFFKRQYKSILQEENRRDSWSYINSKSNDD
Chain of Mu-type opioid receptor (P35372 whole entry): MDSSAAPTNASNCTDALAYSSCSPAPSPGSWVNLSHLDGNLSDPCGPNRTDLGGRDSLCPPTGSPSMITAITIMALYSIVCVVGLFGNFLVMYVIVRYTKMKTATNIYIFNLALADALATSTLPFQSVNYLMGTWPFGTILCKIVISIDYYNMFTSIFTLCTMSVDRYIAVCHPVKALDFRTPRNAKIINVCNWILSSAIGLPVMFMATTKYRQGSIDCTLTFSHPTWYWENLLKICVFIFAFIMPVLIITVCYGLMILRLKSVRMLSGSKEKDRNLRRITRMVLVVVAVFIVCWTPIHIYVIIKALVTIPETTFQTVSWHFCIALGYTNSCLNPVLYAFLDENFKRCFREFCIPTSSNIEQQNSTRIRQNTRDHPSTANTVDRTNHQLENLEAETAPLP
Chain of Beta-galactosidase (Q8VNN2 whole entry): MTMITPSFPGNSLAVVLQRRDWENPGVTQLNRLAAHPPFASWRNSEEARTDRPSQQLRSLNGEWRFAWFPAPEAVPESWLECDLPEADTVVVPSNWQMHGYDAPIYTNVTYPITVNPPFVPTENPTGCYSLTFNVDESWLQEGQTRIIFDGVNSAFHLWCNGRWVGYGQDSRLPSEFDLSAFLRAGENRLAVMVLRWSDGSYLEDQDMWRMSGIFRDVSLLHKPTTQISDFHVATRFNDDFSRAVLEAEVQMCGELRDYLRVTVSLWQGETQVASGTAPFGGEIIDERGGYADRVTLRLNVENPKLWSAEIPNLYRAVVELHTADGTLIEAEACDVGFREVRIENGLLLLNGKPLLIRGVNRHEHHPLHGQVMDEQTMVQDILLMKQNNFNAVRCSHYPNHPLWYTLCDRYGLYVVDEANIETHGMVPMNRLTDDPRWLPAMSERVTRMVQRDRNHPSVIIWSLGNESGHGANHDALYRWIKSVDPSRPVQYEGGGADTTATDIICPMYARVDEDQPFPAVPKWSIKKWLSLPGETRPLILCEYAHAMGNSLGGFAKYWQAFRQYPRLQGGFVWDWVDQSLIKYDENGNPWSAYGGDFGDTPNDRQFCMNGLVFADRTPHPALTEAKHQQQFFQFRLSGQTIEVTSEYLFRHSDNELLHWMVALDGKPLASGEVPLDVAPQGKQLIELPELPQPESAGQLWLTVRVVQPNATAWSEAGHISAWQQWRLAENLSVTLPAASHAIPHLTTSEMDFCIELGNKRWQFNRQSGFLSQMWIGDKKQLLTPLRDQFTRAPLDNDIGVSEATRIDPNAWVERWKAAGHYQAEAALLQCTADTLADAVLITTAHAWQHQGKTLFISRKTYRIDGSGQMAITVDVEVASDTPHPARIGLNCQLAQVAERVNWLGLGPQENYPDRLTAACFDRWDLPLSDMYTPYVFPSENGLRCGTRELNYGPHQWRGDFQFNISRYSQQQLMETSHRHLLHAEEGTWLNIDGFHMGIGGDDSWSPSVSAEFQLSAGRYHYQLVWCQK

Structure (SMILES): COC(=O)c1ccc(C)c(-n2c(=O)n(Cc3ccccc3)c(=O)c3[nH]cnc32)c1
- IC50 [1]: 6.39 µM (active)
- EC50 (Mu-type opioid receptor): > 32 µM (inactive)
- EC50 (Beta-galactosidase): 11.5 µM (active)
- EC50 [2]: > 32 µM (inactive)
- IC50 [3]: > 32 µM (inactive)
- IC50 [4]: > 32 µM

Structure (SMILES): CC(NC(=O)/C(C#N)=C/c1ccc(Cl)c([N+](=O)[O-])c1)c1ccccc1 (stereo not drawn)
- AC50 [5]: 18.2 µM (active)
- EC50 [6]: 13.5 µM (active)
- EC50 (Protein RecA): 5.2 µM (active)
- IC50 [7]: 2.53 µM (active)
- AC50 (CAAX prenyl protease 2 [8]): 8.59 µM (active)
- IC50 [9]: 8.95 µM (active)
- EC50 [10]: 17.8 µM (active)
- AC50 [11]: 4.02 µM (active)
- EC50 (Integrin alpha-4): 2.42 µM (active)
- AC50 (CAAX prenyl protease 2 [12]): 2.44 µM (active)

Structure (SMILES): CCC(C)NS(=O)(=O)c1ccc(NC(=O)C(Sc2ccccc2)c2ccccc2)cc1 (stereo not drawn)
- EC50 [13]: > 32 µM (inactive)
- IC50 (Cannabinoid receptor 1 [14]): 0.975 µM (active)
- EC50 [6]: 14.5 µM (active)
- IC50 [15]: 1.94 µM (active)
- EC50 (Cannabinoid receptor 2 [16]): > 32 µM (inactive)
- IC50 (Cannabinoid receptor 2 [17]): > 32 µM (inactive)
- EC50 [18]: > 60 µM (not active)
- IC50 [9]: 0.592 µM (active)
- EC50 (Cannabinoid receptor 1 [19]): > 32 µM (inactive)
- IC50 [20]: > 32 µM (inactive)
- EC50 [10]: 13.6 µM (active)
- EC50 [21]: 2.34 µM (active)

Reference: ChEMBL document CHEMBL1201862, “PubChem BioAssay data set” (2004)
